According to patent publication US20070128217A1 (priority 2003, published 2007):

Experiments:
[1] = system: antibodies in sera from SARS patients (sera 1a, 1b, 2, 6, 37, 62, London, SARS-yellow, SARS-green); assay type: binding, human; parameters: Binding of serum 6 to linear peptides of protein X1 of SARS-CoV Urbani / Binding of serum 37 to linear peptides of protein X1 of SARS-CoV Urbani / Binding of serum 6 to looped/cyclic peptide (PEPSCAN-ELISA) / Binding of serum 37 to looped/cyclic peptide (PEPSCAN-ELISA) / Binding of serum 37 to looped/cyclic peptides of protein X1 of SARS-CoV Urbani / Binding of serum 6 to linear peptides of protein X2 / Binding of serum 37 to linear peptides of protein X2 / Binding of serum 37 to looped/cyclic peptides of protein X2 of SARS-CoV Urbani / Binding of serum 6 to linear peptides of protein M of SARS-CoV Urbani / Binding of serum 37 to linear peptides of protein M of SARS-CoV Urbani / Binding of serum 6 to looped/cyclic peptides of protein M of SARS-CoV Urbani / Binding of serum 37 to looped/cyclic peptides of protein M of SARS-CoV Urbani / Binding of serum 6 to linear peptides of protein X3 of SARS-CoV Urbani / Binding of serum 37 to linear peptides of protein X3 of SARS-CoV Urbani / Binding of serum 37 to looped/cyclic peptides of protein X3 of SARS-CoV Urbani / Binding of serum 6 to linear peptides of protein X4 of SARS-CoV Urbani / Binding of serum 37 to linear peptides of protein X4 of SARS-CoV Urbani / Binding of serum 37 to looped/cyclic peptides of protein X4 of SARS-CoV Urbani / Binding of serum 6 to linear peptides of protein X5 of SARS-CoV Urbani / Binding of serum 37 to linear peptides of protein X5 of SARS-CoV Urbani / Binding of serum 37 to looped/cyclic peptides of protein X5 of SARS-CoV Urbani / Binding of serum 6 to linear peptides of protein N of SARS-CoV Urbani / Binding of serum 37 to linear peptides of protein N of SARS-CoV Urbani / Binding of serum 6 to linear peptide (PEPSCAN-ELISA) / Binding of serum 1a to looped/cyclic peptides of protein N of SARS-CoV Urbani / Binding of serum 1b to looped/cyclic peptides of protein N of SARS-CoV Urbani / Binding of serum 2 to looped/cyclic peptides of protein N of SARS-CoV Urbani / Binding of serum 6 to looped/cyclic peptides of protein N of SARS-CoV Urbani / Binding of serum 37 to looped/cyclic peptides of protein N of SARS-CoV Urbani / Binding of serum 62 to looped/cyclic peptides of protein N of SARS-CoV Urbani / Binding of serum London to looped/cyclic peptides of protein N of SARS-CoV Urbani / Binding of serum SARS-green to looped/cyclic peptides of protein N of SARS-CoV Urbani: unit not given here
[2] = system: rabbit serum obtained by immunizing a rabbit with the SARS-CoV strain Frankfurt 1; assay type: binding; parameters: Binding of a rabbit serum to linear peptides / Binding of a rabbit serum to looped peptides / Rabbit serum linear peptides / Rabbit serum looped peptides / Binding of a rabbit serum to linear peptides of protein N of SARS-CoV Urbani (Rabbit serum linear peptides) / Binding of a rabbit serum to looped/cyclic peptides of protein N of SARS-CoV Urbani (Rabbit serum looped peptides): unit not given here
[3] = system: control sera (pooled serum of ten healthy LUMC hospital workers; commercial negative donor pooled serum from the Dutch bloodbank); assay type: binding, human; parameters: Binding of Control serum LUMC to linear peptides / Binding of Control serum Blood-bank to linear peptides / Binding of Control serum LUMC to looped peptides / Binding of Control Serum Blood-Bank to Looped peptides / Binding of Control serum LUMC to linear peptides of the protein M of SARS-CoV Urbani / Binding of Control serum Blood-bank to linear peptides of the protein M of SARS-CoV Urbani / Binding of Control serum LUMC to looped peptides of the protein M of SARS-CoV Urbani / Binding of Control Serum Blood-Bank to Looped peptides of the protein M of SARS-CoV Urbani: unit not given here

Sequence | Binding of serum 1a to looped/cyclic peptide (PEPSCAN-ELISA) [1] | Binding of serum 1b to looped/cyclic peptide (PEPSCAN-ELISA) [1] | Binding of serum 2 to looped/cyclic peptide (PEPSCAN-ELISA) [1] | Binding of serum 6 to looped/cyclic peptide (PEPSCAN-ELISA) [1] | Binding of serum 37 to looped/cyclic peptide (PEPSCAN-ELISA) [1] | Binding of serum 62 to looped/cyclic peptide (PEPSCAN-ELISA) [1] | Binding of serum London to looped/cyclic peptide (PEPSCAN-ELISA) [1] | Binding of serum SARS-green to looped/cyclic peptide (PEPSCAN-ELISA) [1] | Binding of serum SARS-yellow to looped/cyclic peptide (PEPSCAN-ELISA) [1] | Binding of a rabbit serum to linear peptides [2] | Binding of a rabbit serum to looped peptides [2] | Binding of Control Serum Blood-Bank to Looped peptides [3] | Binding of Control serum Blood-bank to linear peptides [3] | Binding of Control serum LUMC to linear peptides [3] | Binding of Control serum LUMC to looped peptides [3] | further results
CWLCWKCKSKNPLLY | 0.7 | 0.4 | 0.5 | 0.7 | 0.7 | 0.7 | 0.3 | 0.3 | 0.5 | 0.2 | 0.7 | 0.6 | 0.9 | 0.7 | 0.7 | Recognition of the peptide by sera of SARS-CoV infected individuals, and form (linear, looped/cyclic) in which it is recognized [1]: recognized in linear form
DGTRHTYQLRARSVS | – | – | – | – | – | – | – | – | – | – | – | 0.8 | 0.6 | 0.5 | 0.7 | Binding of serum 1a to linear peptides of protein X4 of SARS-CoV Urbani [1]: 0.6; Binding of serum 1a to looped/cyclic peptides of protein X4 of SARS-CoV Urbani [1]: 0.8; Binding of serum 1b to linear peptides of protein X4 of SARS-CoV Urbani [1]: 0.5; Binding of serum 1b to looped/cyclic peptides of protein X4 of SARS-CoV Urbani [1]: 0.5; Binding of serum 2 to linear peptides of protein X4 of SARS-CoV Urbani [1]: 0.8; Binding of serum 2 to looped/cyclic peptides of protein X4 of SARS-CoV Urbani [1]: 0.8; Binding of serum 6 to linear peptides of protein X4 of SARS-CoV Urbani [1]: 0.8; Binding of serum 6 to looped/cyclic peptides of protein X4 of SARS-CoV Urbani [1]: 0.8; Binding of serum 37 to linear peptides of protein X4 of SARS-CoV Urbani [1]: 0.8; Binding of serum 37 to looped/cyclic peptides of protein X4 of SARS-CoV Urbani [1]: 0.7; Binding of serum 62 to linear peptides of protein X4 of SARS-CoV Urbani [1]: 0.7; Binding of serum 62 to looped/cyclic peptides of protein X4 of SARS-CoV Urbani [1]: 0.7; Binding of serum London to linear peptides of protein X4 of SARS-CoV Urbani [1]: 0.7; Binding of serum London to looped/cyclic peptides of protein X4 of SARS-CoV Urbani [1]: 0.4; Binding of serum SARS-green to linear peptides of protein X4 of SARS-CoV Urbani [1]: 0.4; Binding of serum SARS-green to looped/cyclic peptides of protein X4 of SARS-CoV Urbani [1]: 0.6; Binding of serum SARS-yellow to linear peptides of protein X4 of SARS-CoV Urbani [1]: 0.5; Binding of serum SARS-yellow to looped/cyclic peptides of protein X4 of SARS-CoV Urbani [1]: 0.7; Recognition of the peptide by the rabbit serum [2]: recognized
DLFMRFFTLGSITAQ | 0.5 | 0.3 | 0.3 | 0.3 | 0.5 | 0.5 | 0.2 | 0.2 | 0.2 | 0.1 | 0.3 | 0.5 | 0.6 | 0.6 | 0.5 | Binding of serum 1a to linear peptides of protein X1 of SARS-CoV Urbani [1]: 0.7; Binding of serum 1b to linear peptides of protein X1 of SARS-CoV Urbani [1]: 0.5; Binding of serum 2 to linear peptides of protein X1 of SARS-CoV Urbani [1]: 0.4; Binding of serum 6 to linear peptides of protein X1 of SARS-CoV Urbani [1]: 0.1; Binding of serum 37 to linear peptides of protein X1 of SARS-CoV Urbani [1]: 0.6; Binding of serum 62 to linear peptides of protein X1 of SARS-CoV Urbani [1]: 0.5; Binding of serum London to linear peptides of protein X1 of SARS-CoV Urbani [1]: 0.2; Binding of serum SARS-green to linear peptides of protein X1 of SARS-CoV Urbani [1]: 0.2; Binding of serum SARS-yellow to linear peptides of protein X1 of SARS-CoV Urbani [1]: 0.4
